Experimental data taken from ChEMBL document CHEMBL1201862, “PubChem BioAssay data set” (2004).
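Dose response: 5 concentrations. Exposure: 48 h. Format: 96-well plates. Endpoint: linear interpolation; highest concentration if not reached. The concentration for 50% growth inhibition is given as GI50.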 Activity calls are given as the source filed them. Cut-off read from the data, not from the text of the source: active = GI50 up to about 1.1 µM and inactive = higher.

Assays:
Test in all cases: NCI tumour cell line growth inhibition, 48 h
SN12C = system: SN12C
HCC 2998 = system: HCC 2998
SNB-75 = system: SNB-75
M14 = system: M14
COLO 205 = system: COLO 205
U-251 = system: U-251
SK-MEL-5 = system: SK-MEL-5
HL-60 = system: HL-60
HT-29 = system: HT-29
SK-OV-3 = system: SK-OV-3
HCT-15 = system: HCT-15
NCI-H226 = system: NCI-H226
HOP-92 = system: HOP-92
A549 = system: A549
OVCAR-8 = system: OVCAR-8
NCI-H522 = system: NCI-H522
RPMI-8226 = system: RPMI-8226

| Structure (SMILES) | GI50 (SN12C) | GI50 (HCC 2998) | GI50 (SNB-75) | GI50 (M14) | GI50 (COLO 205) | GI50 (U-251) | GI50 (SK-MEL-5) | GI50 (HL-60) | GI50 (HT-29) | GI50 (SK-OV-3) | GI50 (HCT-15) | GI50 (NCI-H226) | GI50 (HOP-92) | GI50 (A549) | GI50 (OVCAR-8) | GI50 (NCI-H522) | GI50 (RPMI-8226) |
| --- | --- | --- | --- | --- | --- | --- | --- | --- | --- | --- | --- | --- | --- | --- | --- | --- | --- |
| CN(C)CCNC(=O)c1cccc2nc3ccc4ccccc4c3nc12 | 0.0478 µM (active) | 0.126 µM (active) | 0.12 µM (active) | 0.2 µM (active) | 0.0434 µM (active) | 0.112 µM (active) | 0.105 µM (active) | 0.114 µM (active) | 0.0499 µM (active) | 0.144 µM (active) | 0.0598 µM | 0.178 µM (active) | 0.0957 µM (active) | 0.0481 µM (active) | 0.0574 µM (active) |  |  |
| COC(=O)C1(C(C)C)CCc2c(OC)ccc(OC)c2C1=O (stereo not drawn) | > 100 µM (inactive) | > 100 µM (inactive) |  | > 100 µM (inactive) | > 100 µM (inactive) | > 100 µM (inactive) | > 100 µM (inactive) | > 100 µM (inactive) | > 100 µM (inactive) | > 100 µM (inactive) | > 100 µM |  |  | > 100 µM (inactive) | > 100 µM (inactive) | > 100 µM (inactive) | 93.3 µM (inactive) |
| Cc1nn(C(=O)CC(=O)Nc2ccccc2Cl)c(C)c1/N=N/c1ccccc1Cl | > 100 µM (inactive) | > 100 µM (inactive) | 82 µM (inactive) | > 100 µM (inactive) | > 100 µM (inactive) | > 100 µM (inactive) | > 100 µM (inactive) | > 100 µM (inactive) | > 100 µM (inactive) | > 100 µM (inactive) | > 100 µM |  | > 100 µM (inactive) | > 100 µM (inactive) | > 100 µM (inactive) |  |  |
| O=C(O)c1oc2ccc([N+](=O)[O-])c3c2c1CCC3 | > 100 µM (inactive) | > 100 µM (inactive) | 67.6 µM (inactive) | > 100 µM (inactive) | > 100 µM (inactive) | > 100 µM (inactive) |  | > 100 µM (inactive) | > 100 µM (inactive) |  |  | > 100 µM (inactive) | 27.7 µM (inactive) | > 100 µM (inactive) | > 100 µM (inactive) | > 100 µM (inactive) |  |
| O=C(CC(=O)N1N=C(N2c3ccccc3Sc3ccccc32)CC1c1ccccc1)Nc1ccc(Cl)cc1 (stereo not drawn) | > 100 µM (inactive) | > 100 µM (inactive) | > 100 µM (inactive) | > 100 µM (inactive) | > 100 µM (inactive) | > 100 µM (inactive) | > 100 µM (inactive) | > 10 µM (inactive) | > 100 µM (inactive) | > 100 µM (inactive) | > 100 µM |  | > 100 µM (inactive) | > 100 µM (inactive) | > 100 µM (inactive) |  |  |
| c1ccc(C2CC(c3ccc4ccccc4c3)=Nc3ccccc3S2)cc1 (stereo not drawn) | 16.7 µM (inactive) | 11.9 µM (inactive) | 15.6 µM (inactive) | 15.8 µM (inactive) |  | 17.3 µM (inactive) | 18.9 µM (inactive) | 19.5 µM (inactive) | 17.1 µM (inactive) | 38.5 µM (inactive) |  | 19.4 µM (inactive) |  | 18.3 µM (inactive) | 16.3 µM (inactive) | 17 µM (inactive) | 3.26 µM (inactive) |
| O=C1c2ccccc2C2(Br)C(=O)c3ccccc3C12 (stereo not drawn) | > 100 µM (inactive) | > 100 µM (inactive) | > 100 µM (inactive) | > 100 µM (inactive) | > 100 µM (inactive) | > 100 µM (inactive) | > 100 µM (inactive) | > 100 µM (inactive) | > 100 µM (inactive) | > 100 µM (inactive) | > 100 µM |  | > 100 µM (inactive) | > 100 µM (inactive) | > 100 µM (inactive) | > 100 µM (inactive) | > 100 µM (inactive) |
| COc1cc(C(=O)C/C(CCC(=O)Nc2ccccc2[N+](=O)[O-])=N\NC(=O)CC#N)ccc1O | > 100 µM (inactive) | > 100 µM (inactive) | 49.1 µM (inactive) | > 100 µM (inactive) | > 100 µM (inactive) |  | > 100 µM (inactive) | > 100 µM (inactive) | > 100 µM (inactive) | > 100 µM (inactive) | > 100 µM | > 100 µM (inactive) |  | > 100 µM (inactive) | > 100 µM (inactive) | > 100 µM (inactive) | > 100 µM (inactive) |
| O=C1OC2CCCC[C@@H]2C2C[C@]34CCCCC3[C@@H](C(=O)O4)C12 (stereo partly drawn) | > 100 µM (inactive) | > 100 µM (inactive) | > 100 µM (inactive) | > 100 µM (inactive) | > 100 µM (inactive) | > 100 µM (inactive) | > 100 µM (inactive) |  | > 100 µM (inactive) | > 100 µM (inactive) | > 100 µM | > 100 µM (inactive) | > 100 µM (inactive) | > 100 µM (inactive) | > 100 µM (inactive) | > 100 µM (inactive) |  |
| CCOC(=O)C1=C(C)N(Cc2ccccc2)C(C)=C(C(=O)OCC)C1c1ccccc1O | 28.4 µM (inactive) | 44.8 µM (inactive) | 27.5 µM (inactive) | 33.7 µM (inactive) | 13 µM (inactive) | 39.4 µM (inactive) | 16.1 µM (inactive) | 26.6 µM (inactive) | 41.4 µM (inactive) | 47.2 µM (inactive) | 30.1 µM | 19.4 µM (inactive) | 13.7 µM (inactive) | 29.2 µM (inactive) | 31.7 µM (inactive) | 25.6 µM (inactive) |  |
| O=C1CC(C[C@H](O)C2CCCCC2O)CC(=O)N1Cc1ccccc1 (stereo partly drawn) | > 100 µM (inactive) | > 100 µM (inactive) | > 100 µM (inactive) | > 100 µM (inactive) | > 100 µM (inactive) | > 100 µM (inactive) | > 100 µM (inactive) | > 100 µM (inactive) | > 100 µM (inactive) | > 100 µM (inactive) |  | > 100 µM (inactive) |  | > 100 µM (inactive) | > 100 µM (inactive) | > 100 µM (inactive) |  |
| C[N+]1(C)C/C(=C\c2ccccc2)C(=O)/C(=C/c2ccccc2)C1 | 18.5 µM (inactive) | > 100 µM (inactive) | > 100 µM (inactive) | > 100 µM (inactive) | > 100 µM (inactive) | 31.4 µM (inactive) | 72.8 µM (inactive) | > 100 µM (inactive) | > 100 µM (inactive) | > 100 µM (inactive) | > 100 µM | > 100 µM (inactive) | > 100 µM (inactive) | > 100 µM (inactive) | > 100 µM (inactive) |  | 51.2 µM (inactive) |
| O=C(CC(=O)C(=O)CC(=O)OCc1ccccc1)OCc1ccccc1 | 57.1 µM (inactive) | > 100 µM (inactive) | 61.5 µM (inactive) | > 100 µM (inactive) | > 100 µM (inactive) | 50.9 µM (inactive) | 66.1 µM (inactive) | 63.4 µM (inactive) | > 100 µM (inactive) | > 100 µM (inactive) | > 100 µM |  | 58.1 µM (inactive) | 60.8 µM (inactive) | > 100 µM (inactive) | 31.3 µM (inactive) | 45.8 µM (inactive) |
| O=C(c1ccc(Cl)cc1)N(C(=S)N1CCN(c2ccccc2)CC1)c1ccccc1 | > 100 µM (inactive) |  | > 100 µM (inactive) | > 100 µM (inactive) | > 100 µM (inactive) | > 100 µM (inactive) | > 100 µM (inactive) | > 100 µM (inactive) | > 100 µM (inactive) | > 100 µM (inactive) | > 100 µM | 53.8 µM (inactive) | > 100 µM (inactive) | > 100 µM (inactive) | > 100 µM (inactive) | > 100 µM (inactive) | > 100 µM (inactive) |
